pIC50: −log10 of the molar value.
Biological target: T1, JAK3 (Homo sapiens, UniProt P52333)
T1 construct: endogenous in cells; host or cells: mixed Molt4/Ramos lysate (1:2)
T1 sequence (P52333 1-1124): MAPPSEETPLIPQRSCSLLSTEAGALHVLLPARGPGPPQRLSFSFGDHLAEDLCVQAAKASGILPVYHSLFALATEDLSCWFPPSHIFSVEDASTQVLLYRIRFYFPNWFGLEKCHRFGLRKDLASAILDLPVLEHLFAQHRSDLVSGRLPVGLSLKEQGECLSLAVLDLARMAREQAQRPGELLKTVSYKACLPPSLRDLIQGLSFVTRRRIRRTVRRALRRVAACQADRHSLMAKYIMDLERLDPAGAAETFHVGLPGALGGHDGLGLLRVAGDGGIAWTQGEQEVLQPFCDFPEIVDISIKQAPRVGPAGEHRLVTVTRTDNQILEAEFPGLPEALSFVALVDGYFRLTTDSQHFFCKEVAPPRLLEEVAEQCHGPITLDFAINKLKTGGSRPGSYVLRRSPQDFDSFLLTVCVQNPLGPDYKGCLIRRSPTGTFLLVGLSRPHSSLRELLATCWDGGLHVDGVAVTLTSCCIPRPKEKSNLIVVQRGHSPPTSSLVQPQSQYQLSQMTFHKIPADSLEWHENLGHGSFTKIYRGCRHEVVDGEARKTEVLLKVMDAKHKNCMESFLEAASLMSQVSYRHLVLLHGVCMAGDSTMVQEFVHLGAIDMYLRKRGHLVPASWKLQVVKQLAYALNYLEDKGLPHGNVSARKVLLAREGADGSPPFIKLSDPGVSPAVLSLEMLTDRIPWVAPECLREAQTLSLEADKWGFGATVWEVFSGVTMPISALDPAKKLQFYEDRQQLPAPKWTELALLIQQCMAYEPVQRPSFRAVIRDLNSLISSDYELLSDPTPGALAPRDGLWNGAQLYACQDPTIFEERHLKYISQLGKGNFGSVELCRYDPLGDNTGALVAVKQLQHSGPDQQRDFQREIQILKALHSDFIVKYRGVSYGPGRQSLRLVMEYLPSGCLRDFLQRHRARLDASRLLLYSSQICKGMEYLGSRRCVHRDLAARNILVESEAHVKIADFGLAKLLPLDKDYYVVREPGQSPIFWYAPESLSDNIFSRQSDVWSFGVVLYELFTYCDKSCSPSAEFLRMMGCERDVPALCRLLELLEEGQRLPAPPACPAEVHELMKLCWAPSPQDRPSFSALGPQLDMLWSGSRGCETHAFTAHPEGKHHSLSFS
Assay: Kinobeads assay, JAK3
Type: binding
Conditions: mixed Molt4/Ramos lysate, read-out: Inhibition values (IC50) JAK3
Outline: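 Competition binding in mixed Molt4/Ramos cell lysate (1:2, 10 mg/mL protein) with Kinobeads carrying immobilized aminopyrido-pyrimidine ligand, 3 h in cold room; 9-step 1:3 compound dilution series from 5 mM DMSO stock. Bead-bound JAK2/JAK3 eluted and quantified by antibody dot blot with infrared detection; IC50 from dose-response curves.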

Structure (SMILES) | pIC50
N#CCCn1cc(Nc2ncc3cnn(Cc4cc(F)cc(N5CCOCC5=O)c4)c3n2)cn1 [Example 107, 3-(4-((1-(3-fluoro-5-(3-oxomorpholino)benzyl)-1H-pyrazolo[3,4-d]pyrimidin-6-yl)amino)-1H-pyrazol-1-yl)propanenitrile] | > 7.00
Cn1cc(Nc2ncc3cnn(Cc4cccc(N5CCC(=O)CC5)c4)c3n2)cn1 [Example 108, 1-(3-((6-((1-methyl-1H-pyrazol-4-yl)amino)-1H-pyrazolo[3,4-d]pyrimidin-1-yl)methyl)phenyl)piperidin-4-one] | > 7.00
O=C(Cn1cc(Nc2ncc3cnn(Cc4cc(F)cc(N5CCOCC5=O)c4)c3n2)cn1)N1CCNCC1 [Example 109, 4-(3-fluoro-5-((6-((1-(2-oxo-2-(piperazin-1-yl)ethyl)-1H-pyrazol-4-yl)amino)-1H-pyrazolo[3,4-d]pyrimidin-1-yl)methyl)phenyl)morpholin-3-one] | > 7.00
Cn1cc(Nc2ncc3cnn(Cc4c(F)c(F)cc(C(=O)N5CCOCC5)c4F)c3n2)cn1 [Example 110, morpholino(2,4,5-trifluoro-3-((6-((1-methyl-1H-pyrazol-4-yl)amino)-1H-pyrazolo[3,4-d]pyrimidin-1-yl)methyl)phenyl)methanone] | > 7.00
O=C(c1cc(F)c(F)c(Cn2ncc3cnc(Nc4cnn(CCO)c4)nc32)c1F)N1CCOCC1 [Example 111, morpholino(2,4,5-trifluoro-3-((6-((1-(2-hydroxyethyl)-1H-pyrazol-4-yl)amino)-1H-pyrazolo[3,4-d]pyrimidin-1-yl)methyl)phenyl)methanone] | > 7.00
C[C@H]1COCCN1c1cccc(Cn2ncc3cnc(Nc4cnn(C)c4)nc32)c1 [Example 112, (S)-N-(1-methyl-1H-pyrazol-4-yl)-1-(3-(3-methylmorpholino)benzyl)-1H-pyrazolo[3,4-d]pyrimidin-6-amine] | > 7.00
C[C@@H]1COCCN1c1cccc(Cn2ncc3cnc(Nc4cnn(C)c4)nc32)c1 [Example 113, (R)-N-(1-methyl-1H-pyrazol-4-yl)-1-(3-(3-methylmorpholino)benzyl)-1H-pyrazolo[3,4-d]pyrimidin-6-amine] | > 7.00
Cn1cc(Nc2ncc3cnn(Cc4cccc(NC5COC5)c4)c3n2)cn1 [Example 114, N-(1-methyl-1H-pyrazol-4-yl)-1-(3-(oxetan-3-ylamino)benzyl)-1H-pyrazolo[3,4-d]pyrimidin-6-amine] | > 7.00
Cn1cc(Nc2ncc3cnn(Cc4cccc(-c5cnn(C)c5)c4)c3n2)cn1 [Example 115, N-(1-methyl-1H-pyrazol-4-yl)-1-(3-(1-methyl-1H-pyrazol-4-yl)benzyl)-1H-pyrazolo[3,4-d]pyrimidin-6-amine] | > 7.00
CCn1cc(-c2cccc(Cn3ncc4cnc(Nc5cnn(C)c5)nc43)c2)cn1 [Example 116, 1-(3-(1-ethyl-1H-pyrazol-4-yl)benzyl)-N-(1-methyl-1H-pyrazol-4-yl)-1H-pyrazolo[3,4-d]pyrimidin-6-amine] | > 7.00
CC(C)n1cc(-c2cccc(Cn3ncc4cnc(Nc5cnn(C)c5)nc43)c2)cn1 [Example 117, 1-(3-(1-isopropyl-1H-pyrazol-4-yl)benzyl)-N-(1-methyl-1H-pyrazol-4-yl)-1H-pyrazolo[3,4-d]pyrimidin-6-amine] | 6.00 to 7.00
Cn1cc(Nc2ncc3cnn(Cc4cccc(-c5cn[nH]c5)c4)c3n2)cn1 [Example 118, 1-(3-(1H-pyrazol-4-yl)benzyl)-N-(1-methyl-1H-pyrazol-4-yl)-1H-pyrazolo[3,4-d]pyrimidin-6-amine] | > 7.00
CCCn1cc(-c2cccc(Cn3ncc4cnc(Nc5cnn(C)c5)nc43)c2)cn1 [Example 119, N-(1-methyl-1H-pyrazol-4-yl)-1-(3-(1-propyl-1H-pyrazol-4-yl)benzyl)-1H-pyrazolo[3,4-d]pyrimidin-6-amine] | > 7.00
Cn1cc(Nc2ncc3cnn(Cc4cccc(-c5cnn(CC(N)=O)c5)c4)c3n2)cn1 [Example 120, 2-(4-(3-((6-((1-methyl-1H-pyrazol-4-yl)amino)-1H-pyrazolo[3,4-d]pyrimidin-1-yl)methyl)phenyl)-1H-pyrazol-1-yl)acetamide] | > 7.00
Cn1cc(Nc2ncc3cnn(Cc4cccc(-c5cnn(CCO)c5)c4)c3n2)cn1 [Example 121, 2-(4-(3-((6-((1-methyl-1H-pyrazol-4-yl)amino)-1H-pyrazolo[3,4-d]pyrimidin-1-yl)methyl)phenyl)-1H-pyrazol-1-yl)ethanol] | > 7.00
Cn1cc(-c2cccc(Cn3ncc4cnc(Nc5cnn(CCO)c5)nc43)c2)cn1 [Example 122, 2-(4-((1-(3-(1-methyl-1H-pyrazol-4-yl)benzyl)-1H-pyrazolo[3,4-d]pyrimidin-6-yl)amino)-1H-pyrazol-1-yl)ethanol] | > 7.00
Cn1cc(Nc2ncc3cnn(Cc4cccc(-c5cnn(C)c5)c4F)c3n2)cn1 [Example 123, 1-(2-fluoro-3-(1-methyl-1H-pyrazol-4-yl)benzyl)-N-(1-methyl-1H-pyrazol-4-yl)-1H-pyrazolo[3,4-d]pyrimidin-6-amine] | > 7.00
Cn1cc(-c2cccc(Cn3ncc4cnc(Nc5cnn(CCO)c5)nc43)c2F)cn1 [Example 124, 2-(4-((1-(2-fluoro-3-(1-methyl-1H-pyrazol-4-yl)benzyl)-1H-pyrazolo[3,4-d]pyrimidin-6-yl)amino)-1H-pyrazol-1-yl)ethanol] | > 7.00
Cn1cc(Nc2ncc3cnn(Cc4cc(F)cc(-c5cnn(C)c5)c4)c3n2)cn1 [Example 125, 1-(3-fluoro-5-(1-methyl-1H-pyrazol-4-yl)benzyl)-N-(1-methyl-1H-pyrazol-4-yl)-1H-pyrazolo[3,4-d]pyrimidin-6-amine] | > 7.00
Cn1cc(Nc2ncc3cnn(Cc4cc(-c5cnn(C)c5)cc(F)c4F)c3n2)cn1 [Example 126, 1-(2,3-difluoro-5-(1-methyl-1H-pyrazol-4-yl)benzyl)-N-(1-methyl-1H-pyrazol-4-yl)-1H-pyrazolo[3,4-d]pyrimidin-6-amine] | > 7.00
Cn1cc(-c2cc(F)c(F)c(Cn3ncc4cnc(Nc5cnn(CCO)c5)nc43)c2)cn1 [Example 127, 2-(4-((1-(2,3-difluoro-5-(1-methyl-1H-pyrazol-4-yl)benzyl)-1H-pyrazolo[3,4-d]pyrimidin-6-yl)amino)-1H-pyrazol-1-yl)ethanol] | > 7.00
